In patent US20060172953A1, “Treatment of benign prostatic hyperplasia using energolytic agents” (Threshold Pharmaceuticals Inc., priority 2003, published 2006):

Columns and labels:
[1] = test system: HIF-1α; assay: HIF-1α expression in LNCaP cells (immunoblot of nuclear and whole-cell extracts); type: cell-based, human; conditions: for reduction of HIF-1α expression/accumulation (nuclear fraction): citrate-producing cell cultured under hypoxia
Text: (§1) See Franklin et al.; 1995, Endocrine 3:603-607. […] 20108 USA. Methods: […]

[2] = test system: HIF-1α; assay: HIF-1α expression in PC3 cells (immunoblot of nuclear and whole-cell extracts); type: cell-based, human; conditions: 4 hours, dose-dependent
Text: as §1

[3] = test system: actin, caspase 3, NF-κB, IκBα; assay: Protein levels of actin, caspase 3, NF-κB, IκBα (immunoblot, specificity control); type: cell-based, human; conditions: all concentrations tested except 800 μM
Protocol: Methods: Cells were plated at a density of 5×10^5 cells into a dish, and then maintained in 37° C. incubator (5% CO2) for 2 days. Prior to the assay, cells were rinsed twice with pre-warmed (37° C.) RPMI-1640 Medium (ATCC No. 30-2001; 10 mM HEPES; 1 mM sodium pyruvate; 2 mM L-glutamine; 4500 mg glucose/L; 1500 mg sodium bicarbonate/L). Cells were incubated with 2 ml of culture medium in the absence or presence of lonidamine at different concentrations for 4 hours at 37° C. either under normoxia or hypoxia (oxygen level <0.1%). At the end of the incubation, the dish was placed on ice, and the cells were washed rapidly twice with cold PBS buffer (4° C.). […] The protein concentration was measured using a Bio-Rad protein assay. […] To detect the expression of caspase 3, NF-κB, P65 and IκBα, the membrane was blocked with TBST-containing 5% non-fat milk for 1 h at room temperature, and the proteins were detected by incubation with the corresponding antibodies overnight at 4° C. and with the alkaline phosphatase-conjugated secondary antibody for 1 h. The specific protein was detected using a colorimetric substrate, and the intensity of each protein was quantified using an NIH image system.

[4] = test system: LNCaP cells; assay: Apoptosis (caspase 3 activation) in citrate-producing LNCaP cells; type: cell-based, human
Protocol: (§2) Immunoblotting: Immunoblotting was carried out as described in Example 2. […] Apoptosis assay: […] Lonidamine was added into each well at different concentrations, and then incubated for 6 h at 37° C. To assess the caspase 3 activity, the homogeneous buffer and caspase 3 substrate (Promega No G7791; Promega Corporation, 2800 Woods Hollow Road, Madison Wis. USA 53711) were added into each well in the presence or absence of caspase 3 inhibitor (Promega No G5961). The fluorescence intensity of cleaved substrate was determined using a fluorescence plate reader at excitation 485 nm and emission 530 nm.

[5] = test system: PC3 cells; assay: Apoptosis (caspase 3 activation) in citrate-oxidizing PC3 cells; type: cell-based, human; conditions: LNCaP vs PC3 (citrate-oxidizing) cells
Protocol: as §2

[6] = test system: human prostate epithelial cells; assay: Apoptosis assay in primary cultures of prostate epithelial cells; type: cell-based; conditions: primary cultures of prostate epithelial cells (accumulate citrate)
Protocol: (§3) Primary Cell Cultures: Primary cultures of human prostate epithelial cells (Cambrex No CC-2555) and human prostate stromal cells (Cambrex No CC-2508) were obtained from Cambrex Bio Science Rockland, Inc. (191 Thomaston Street, Rockland, Me. 04841). Apoptosis assay: […] Lonidamine was added into each well at different concentrations, and then incubated for 6 h at 37° C. To assess the caspase 3 activity, the homogeneous buffer and caspase 3 substrate (Promega No G7791; Promega Corporation, 2800 Woods Hollow Road, Madison Wis. USA 53711) were added into each well in the presence or absence of caspase 3 inhibitor (Promega No G5961). The fluorescence intensity of cleaved substrate was determined using a fluorescence plate reader at excitation 485 nm and emission 530 nm.

[7] = test system: human prostate stromal cells; assay: Apoptosis assay in primary cultures of prostate stromal cells; type: cell-based; conditions: primary cultures of prostate stromal cells (do not accumulate citrate)
Protocol: as §3

## O=C(O)c1nn(Cc2ccc(Cl)cc2Cl)c2ccccc12 [lonidamine, 1-(2,4-dichlorobenzyl)-1H-indazole-3-carboxylic acid]
[1]; LNCaP cells, hypoxic conditions (oxygen <0.1%), 4 hours, dose-dependent
  level of HIF-1α protein in nuclear and whole-cell extracts: reduced the level of HIF-1α protein
[1]; 200 micromolar lonidamine
  reduction of HIF-1α expression/accumulation (nuclear fraction): about 2 fold
[1]; higher lonidamine concentrations (above 200 micromolar)
  reduction of HIF-1α expression/accumulation (nuclear fraction): more than 5 fold
[1]; hypoxic conditions (oxygen level <0.1%), LNCaP vs PC3
  effect on HIF-1α expression, LNCaP compared with PC3: more pronounced in LNCaP cells than in PC3 cells
[2]; hypoxic conditions (oxygen <0.1%)
  level of HIF-1α protein in nuclear and whole-cell extracts: reduced the level of HIF-1α protein
[2]; normoxic conditions
  level of HIF-1α protein in nuclear and whole-cell extracts: reduced the level of HIF-1α protein
[3]
  inhibition of protein levels of actin, caspase 3, NF-κB, or IκBα: no detectable inhibition
[4]; LNCaP (citrate-producing) cells
  activation of caspase 3: induced activation of caspase 3
[4]; lonidamine-treated cells
  time course of caspase 3 activation: time-dependent process
[5]
  activation of caspase 3, LNCaP compared with PC3: to a much greater extent than in citrate-oxidizing cells (PC3)
[6]
  induction of apoptosis: induced apoptosis only in prostate epithelial cells in a dose-dependent manner
[7]
  induction of apoptosis: induction of apoptosis was not observed
